{"source": "patent US20240246913A1", "about": "“2-CARBOXYL-INDOLE INHIBITORS OF METALLO-BETA-LACTAMASES” (Oxford University Innovation Limited, priority 2021, published 2024)", "key": {"VIM-2": {"molecular_target": "VIM-2 (Escherichia coli, UniProt Q5U7L7)", "assay": "MBL inhibition, FC-5 fluorescence assay, VIM-2", "format": "biochemical", "experimental": "(§1) Inhibitors were tested using a panel of the clinically relevant B1 MBLs (NDM-1, VIM-1, -2 and IMP-1). Activities were assayed by monitoring the release of a fluorophore following the enzymatic breakdown of the cephalosporin FC-5 (https://pubs.acs.org/doi/abs/10.1021/jm400769b). FC-5 assays were conducted in clear bottomed 384 black well microplates (Greiner); the initial rate of reaction was assessed by monitoring the fluorescence intensity (λex=380 nm and λem=460 nm) using a Pherstar FS (BMG LabTech) plate reader. Initial rates of reaction were determined and dose-response analyses conducted in GraphPad Prism. Dose-response curves were fitted using the log(inhibitor) vs normalized response—variable slope model of GraphPad Prism 12. Each concentration point for routine screening was conducted with 4 intra-plate replicates."}, "NDM-1": {"molecular_target": "NDM-1 (Klebsiella pneumoniae, UniProt C7C422)", "sequence (C7C422 29-270, looked up, species assumed)": "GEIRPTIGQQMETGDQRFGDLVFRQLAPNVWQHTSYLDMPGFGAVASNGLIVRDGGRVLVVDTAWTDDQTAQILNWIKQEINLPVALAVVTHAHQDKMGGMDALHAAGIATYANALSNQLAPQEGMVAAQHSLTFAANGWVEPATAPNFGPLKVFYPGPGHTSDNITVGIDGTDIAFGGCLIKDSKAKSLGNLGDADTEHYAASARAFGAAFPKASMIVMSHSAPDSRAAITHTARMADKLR", "assay": "MBL inhibition, FC-5 fluorescence assay, NDM-1", "format": "biochemical", "experimental": "as §1"}, "IMP-1": {"molecular_target": "IMP-1 (Serratia marcescens, UniProt P52699)", "sequence (P52699 19-246, looked up, species assumed)": "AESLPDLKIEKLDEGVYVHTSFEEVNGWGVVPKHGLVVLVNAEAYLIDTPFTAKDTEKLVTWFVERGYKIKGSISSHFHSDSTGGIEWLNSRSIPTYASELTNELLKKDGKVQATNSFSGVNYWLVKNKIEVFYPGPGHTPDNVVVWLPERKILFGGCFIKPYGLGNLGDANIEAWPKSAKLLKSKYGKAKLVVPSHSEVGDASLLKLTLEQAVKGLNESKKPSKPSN", "assay": "MBL inhibition, FC-5 fluorescence assay, IMP-1", "format": "biochemical", "experimental": "as §1"}, "VIM-1": {"molecular_target": "VIM-1 (Pseudomonas aeruginosa, UniProt A0A0F7KYQ8)", "assay": "MBL inhibition, FC-5 fluorescence assay, VIM-1", "format": "biochemical", "experimental": "as §1"}, "[1]": {"assay": "Plasma protein binding, equilibrium dialysis, human plasma", "format": "in vitro ADME", "details": "pH 7.4, equilibrium dialysis (RED) 4 hours at 37° C., read-out: Plasma protein binding, fu, Human", "experimental": "The fraction of unbound compound (fu) in plasma from human or other animal species was determined by equilibrium dialysis at 37° C. for 4 hours using the Rapid Equilibrium Dialysis (RED) device (ThermoFisher Scientific). The test compound at a concentration of 10 μM was added to plasma and dialyzed against isotonic phosphate buffer (67 mM, pH 7.4) over 4 hours at 37° C. After dialysis, compound concentrations in buffer and plasma were quantified by LC-MS/MS. In parallel the stability of the compound in plasma was determined by incubating drug-spiked plasma (10 μM) at 37° C. for 4 hours, meanwhile the control plasma sample was kept in the freezer. The concentration of the compound in both samples was quantified by LC-MS/MS (Waters Corp, Milford, MA, USA)."}, "[2]": {"tested_on": "Acinetobacter baumannii NDM-1", "assay": "Antibiotic susceptibility testing (MIC), AB NDM-1", "format": "cell-based", "details": "agar or broth dilution (CLSI/EUCAST)", "experimental": "(§2) Antibiotic susceptibility testing was performed using the agar or broth dilution method, in line with the Clinical and Laboratory Standards Institute (CLSI) and European Committee on Antimicrobial Susceptibility Testing (EUCAST) requirements."}, "Escherichia coli NDM-7": {"tested_on": "Escherichia coli NDM-7", "assay": "Antibiotic susceptibility testing (MIC), EC NDM-7", "format": "cell-based", "details": "agar or broth dilution (CLSI/EUCAST)", "experimental": "as §2"}, "Escherichia coli NDM-1": {"tested_on": "Escherichia coli NDM-1", "assay": "Antibiotic susceptibility testing (MIC), EC NDM-1", "format": "cell-based", "details": "agar or broth dilution (CLSI/EUCAST)", "experimental": "as §2"}, "[3]": {"details": "FC-5 cephalosporin substrate, ranges of obtained pIC50, read-out: pIC50 VIM-2 (converted)"}, "[4]": {"details": "FC-5 cephalosporin substrate, fluorescence, ranges of obtained pIC50, read-out: pIC50 NDM-1 (converted)"}, "[5]": {"details": "FC-5 cephalosporin substrate, fluorescence, ranges of obtained pIC50, read-out: pIC50 IMP-1 (converted)"}, "[6]": {"details": "FC-5 cephalosporin substrate, ranges of obtained pIC50, read-out: pIC50 VIM-1 (converted)"}}, "note": "Read-outs that look alike come from different tables or passages of the source.", "data": [{"smiles": "CC(c1cccc2c(-c3ccc(CS(C)(=O)=O)c(F)c3)c(C(=O)O)[nH]c12)n1cc(CNS(N)(=O)=O)nn1", "note": "(stereo not drawn) [IC-8, 3-(3-Fluoro-4-((methylsulfonyl)methyl)phenyl)-7-(1-(4-((sulfamoylamino)methyl)-1H-1,2,3-triazol-1-yl)ethyl)-1H-indole-2-carboxylic acid]", "values": [{"measurement": "IC50", "setting": "VIM-2; [3]", "value": "1 to 10", "unit": "nM"}, {"measurement": "IC50", "setting": "NDM-1; [4]", "value": "> 10", "unit": "nM"}, {"measurement": "IC50", "setting": "IMP-1; [5]", "value": "> 10", "unit": "nM"}, {"measurement": "IC50", "setting": "VIM-1; [6]", "value": "> 10", "unit": "nM"}, {"measurement": "fraction unbound at 4 h, 10 μM", "setting": "[1]", "value": "0.05 to 0.25"}]}, {"smiles": "COc1cc(-c2c(C(=O)O)[nH]c3c([C@H](C)N4CC5(CC(CN)C5)OC4=O)cccc23)ccn1", "note": "(stereo partly drawn) [IC-20, 7-((1S)-1-(2-(aminomethyl)-6-oxo-5-oxa-7-azaspiro[3.4]octan-7-yl)ethyl)-3-(2-methoxypyridin-4-yl)-1H-indole-2-carboxylic acid]", "values": [{"measurement": "IC50", "setting": "VIM-2; [3]", "value": "0.1 to 1", "unit": "nM"}, {"measurement": "IC50", "setting": "NDM-1; [4]", "value": "0.1 to 1", "unit": "nM"}, {"measurement": "IC50", "setting": "IMP-1; [5]", "value": "> 10", "unit": "nM"}, {"measurement": "IC50", "setting": "VIM-1; [6]", "value": "1 to 10", "unit": "nM"}, {"measurement": "MIC values AB NDM-1", "setting": "[2]", "value": "B (B MIC values 2 ÷ 8)"}, {"measurement": "MIC values EC NDM-7", "setting": "Escherichia coli NDM-7", "value": "A (A = MIC values ≤ 1)"}, {"measurement": "MIC values EC NDM-1", "setting": "Escherichia coli NDM-1", "value": "A (A = MIC values ≤ 1)"}]}, {"smiles": "C[C@@H](c1cccc2c(-c3ccc(CN4CCOCC4)nc3)c(C(=O)O)[nH]c12)n1cc(CN2CC(N)C2)oc1=O", "note": "[IC-52, 7-[(1S)-1-{5-[(3-aminoazetidin-1-yl)methyl]-2-oxo-2,3-dihydro-1,3-oxazol-3-yl}ethyl]-3-{6-[(morpholin-4-yl)methyl]pyridin-3-yl}-1H-indole-2-carboxylic acid]", "values": [{"measurement": "IC50", "setting": "VIM-2; [3]", "value": "1 to 10", "unit": "nM"}, {"measurement": "IC50", "setting": "NDM-1; [4]", "value": "< 0.1", "unit": "nM"}, {"measurement": "IC50", "setting": "IMP-1; [5]", "value": "> 10", "unit": "nM"}, {"measurement": "IC50", "setting": "VIM-1; [6]", "value": "> 10", "unit": "nM"}, {"measurement": "MIC values AB NDM-1", "setting": "[2]", "value": "C (C = MIC values > 8)"}, {"measurement": "MIC values EC NDM-7", "setting": "Escherichia coli NDM-7", "value": "B (B MIC values 2 ÷ 8)"}, {"measurement": "MIC values EC NDM-1", "setting": "Escherichia coli NDM-1", "value": "B (B MIC values 2 ÷ 8)"}]}, {"smiles": "C[C@@H](c1cccc2c(-c3ccc(CS(C)(=N)=O)c(F)c3)c(C(=O)O)[nH]c12)n1cc(CN2CC(N)C2)oc1=O", "note": "(stereo partly drawn) [IC-53, 7-[(1S)-1-{5-[(3-aminoazetidin-1-yl)methyl]-2-oxo-2,3-dihydro-1,3-oxazol-3-yl}ethyl]-3-(3-fluoro-4-{[imino(methyl)oxo-λ^6-sulfanyl]methyl}phenyl)-1H-indole-2-carboxylic acid]", "values": [{"measurement": "IC50", "setting": "VIM-2; [3]", "value": "1 to 10", "unit": "nM"}, {"measurement": "IC50", "setting": "NDM-1; [4]", "value": "< 0.1", "unit": "nM"}, {"measurement": "IC50", "setting": "IMP-1; [5]", "value": "> 10", "unit": "nM"}, {"measurement": "IC50", "setting": "VIM-1; [6]", "value": "1 to 10", "unit": "nM"}, {"measurement": "MIC values AB NDM-1", "setting": "[2]", "value": "B (B MIC values 2 ÷ 8)"}, {"measurement": "MIC values EC NDM-7", "setting": "Escherichia coli NDM-7", "value": "A (A = MIC values ≤ 1)"}, {"measurement": "MIC values EC NDM-1", "setting": "Escherichia coli NDM-1", "value": "A (A = MIC values ≤ 1)"}]}, {"smiles": "CC(c1cccc2c(-c3ccc(CS(C)(=O)=O)c(F)c3)c(C(=O)O)[nH]c12)n1cc(CCC[N+](C)(C)C)oc1=O", "note": "(stereo not drawn) [IC-76, 3-(3-(1-(2-carboxy-3-(3-fluoro-4-((methylsulfonyl)methyl)phenyl)-1H-indol-7-yl)ethyl)-2-oxo-2,3-dihydrooxazol-5-yl)-N,N,N-trimethylpropan-1-aminium]", "values": [{"measurement": "IC50", "setting": "VIM-2; pIC50 VIM-2, FC-5 cephalosporin substrate, ranges of obtained pIC50", "value": "> 10", "unit": "nM"}, {"measurement": "IC50", "setting": "NDM-1", "value": "1 to 10", "unit": "nM"}, {"measurement": "IC50", "setting": "IMP-1", "value": "> 10", "unit": "nM"}, {"measurement": "IC50", "setting": "VIM-1; pIC50 VIM-1, FC-5 cephalosporin substrate, ranges of obtained pIC50", "value": "> 10", "unit": "nM"}]}, {"smiles": "CC(c1cccc2c(-c3ccc(CS(C)(=O)=O)c(F)c3)c(C(=O)O)[nH]c12)n1cc(CO)oc1=O", "note": "(stereo not drawn) [IC-78, 3-(3-Fluoro-4-((methylsulfonyl)methyl)phenyl)-7-(1-(5-(hydroxymethyl)-2-oxooxazol-3(2H)-yl)ethyl)-1H-indole-2-carboxylic acid]", "values": [{"measurement": "IC50", "setting": "VIM-2; [3]", "value": "> 10", "unit": "nM"}, {"measurement": "IC50", "setting": "NDM-1; [4]", "value": "1 to 10", "unit": "nM"}, {"measurement": "IC50", "setting": "IMP-1; [5]", "value": "> 10", "unit": "nM"}, {"measurement": "IC50", "setting": "VIM-1; [6]", "value": "> 10", "unit": "nM"}]}, {"smiles": "CC(c1cccc2c(-c3ccc(CS(C)(=O)=O)c(F)c3)c(C(=O)O)[nH]c12)n1cc(CN2CC[C@H](N)C2)oc1=O", "note": "(stereo partly drawn) [IC-81, 7-[1-[5-[[(3S)-3-Aminopyrrolidin-1-yl]methyl]-2-oxo-oxazol-3-yl]ethyl]-3-[3-fluoro-4-(methylsulfonylmethyl)phenyl]-1H-indole-2-carboxylic acid]", "values": [{"measurement": "IC50", "setting": "VIM-2; [3]", "value": "1 to 10", "unit": "nM"}, {"measurement": "IC50", "setting": "NDM-1; [4]", "value": "0.1 to 1", "unit": "nM"}, {"measurement": "IC50", "setting": "IMP-1; [5]", "value": "> 10", "unit": "nM"}, {"measurement": "IC50", "setting": "VIM-1; [6]", "value": "1 to 10", "unit": "nM"}]}, {"smiles": "CC(c1cccc2c(-c3ccc(CS(C)(=O)=O)c(F)c3)c(C(=O)O)[nH]c12)n1cc(CN2CC[C@@H](N)C2)oc1=O", "note": "(stereo partly drawn) [IC-82, 7-[1-[5-[[(3R)-3-Aminopyrrolidin-1-yl]methyl]-2-oxo-oxazol-3-yl]ethyl]-3-[3-fluoro-4-(methylsulfonylmethyl)phenyl]-1H-indole-2-carboxylic acid]", "values": [{"measurement": "IC50", "setting": "VIM-2; [3]", "value": "0.1 to 1", "unit": "nM"}, {"measurement": "IC50", "setting": "NDM-1; [4]", "value": "0.1 to 1", "unit": "nM"}, {"measurement": "IC50", "setting": "IMP-1; [5]", "value": "> 10", "unit": "nM"}, {"measurement": "IC50", "setting": "VIM-1; [6]", "value": "1 to 10", "unit": "nM"}]}]}
